Measurements as given in patent publication US11685732B2, “MYST family histone acetyltransferase inhibitors” (Epizyme, Inc., priority 2017, dated 2023).
Where two headings read alike, the source gives them in different places.

Columns and labels:
KAT-6A = KAT-6A (Homo sapiens (Human), UniProt Q92794); test: KAT-6A biochemical inhibition assay (SAMDI mass spectrometry)
Method: (§1) KAT-6A. Enzyme assay buffer was 50 mM Tris pH 8.0, 0.002% Tween20, 0.005% bovine skin gelatin, and 1 mM dithiothreitol (DTT). For determination of IC50 values, compounds were serially diluted with 2% (v/v) DMSO in the final reaction, pre-incubating each dilution of each compound with 40 μL of assay buffer containing KAT-6A enzyme (12.5 nM final concentration). 10 μL of assay buffer containing 1 μM peptide substrate and 1 μM acetyl coenzyme A (final concentrations) was added. Reactions (50 μL total) were then carried out at 25° C. for 90 minutes. Reactions were terminated by the addition of 0.5% formic acid (final concentration), and a sample of each reaction was analyzed by SAMDI Tech, Inc. (Chicago, Ill.) using self-assembled monolayer desorption/ionization time-of-flight mass spectrometry (Mrksich, M. (2008) Mass spectrometry of self-assembled monolayers: a new tool for molecular surface science. ACS Nano 2, 7-18).

KAT-8 = KAT-8 (Homo sapiens (Human), UniProt Q9H7Z6); test: KAT-8 biochemical inhibition assay (SAMDI mass spectrometry)
Method: as §1, with “KAT-8. Enzyme assay” for “KAT-6A. Enzyme assay”, “buffer containing KAT-8 enzyme (12.5” for “buffer containing KAT-6A enzyme (12.5”, “substrate and 5 μM acetyl” for “substrate and 1 μM acetyl”

KAT-7 = KAT-7 (Homo sapiens (Human), UniProt O95251); test: KAT-7 biochemical inhibition assay (SAMDI mass spectrometry)
Method: as §1, with “KAT-7. Enzyme assay” for “KAT-6A. Enzyme assay”, “buffer containing KAT-7 enzyme (6” for “buffer containing KAT-6A enzyme (12.5”, “KAT-7 enzyme (6 nM final” for “KAT-6A enzyme (12.5 nM final”, “substrate and 2 μM acetyl” for “substrate and 1 μM acetyl”, “C. for 120 minutes. Reactions” for “C. for 90 minutes. Reactions”

KAT-5 = KAT-5 (Homo sapiens (Human), UniProt Q92993); test: KAT-5 biochemical inhibition assay (SAMDI mass spectrometry)
Method: as §1, with “KAT-5. Enzyme assay” for “KAT-6A. Enzyme assay”, “buffer containing KAT-5 enzyme (9” for “buffer containing KAT-6A enzyme (12.5”, “KAT-5 enzyme (9 nM final” for “KAT-6A enzyme (12.5 nM final”, “substrate and 0.5 μM acetyl” for “substrate and 1 μM acetyl”

Chain of KAT-8 (Q9H7Z6 other isoform, or with tags, fused parts or gaps): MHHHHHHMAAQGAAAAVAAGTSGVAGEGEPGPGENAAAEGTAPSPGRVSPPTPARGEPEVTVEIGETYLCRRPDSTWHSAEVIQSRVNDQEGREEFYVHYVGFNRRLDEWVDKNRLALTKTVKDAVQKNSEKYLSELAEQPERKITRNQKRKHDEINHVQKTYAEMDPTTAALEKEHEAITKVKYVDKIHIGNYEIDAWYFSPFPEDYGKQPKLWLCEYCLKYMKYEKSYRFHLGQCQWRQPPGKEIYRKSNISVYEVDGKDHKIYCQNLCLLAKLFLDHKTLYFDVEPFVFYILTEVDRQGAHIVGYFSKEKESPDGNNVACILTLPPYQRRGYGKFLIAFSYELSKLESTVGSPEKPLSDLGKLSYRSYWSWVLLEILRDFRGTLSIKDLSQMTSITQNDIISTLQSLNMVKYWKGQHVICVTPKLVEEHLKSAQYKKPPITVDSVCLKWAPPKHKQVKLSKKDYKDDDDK
Chain of KAT-6A (Q92794 other isoform, or with tags, fused parts or gaps): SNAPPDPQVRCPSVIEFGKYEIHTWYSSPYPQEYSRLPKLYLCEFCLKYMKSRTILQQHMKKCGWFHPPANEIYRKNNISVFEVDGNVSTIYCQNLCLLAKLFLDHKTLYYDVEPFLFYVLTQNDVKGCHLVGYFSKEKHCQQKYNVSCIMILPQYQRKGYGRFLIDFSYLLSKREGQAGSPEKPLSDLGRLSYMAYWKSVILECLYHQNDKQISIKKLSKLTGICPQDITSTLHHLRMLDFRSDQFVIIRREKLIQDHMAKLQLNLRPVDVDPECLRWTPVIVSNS
Chain of KAT-5 (Q92993 other isoform, or with tags, fused parts or gaps): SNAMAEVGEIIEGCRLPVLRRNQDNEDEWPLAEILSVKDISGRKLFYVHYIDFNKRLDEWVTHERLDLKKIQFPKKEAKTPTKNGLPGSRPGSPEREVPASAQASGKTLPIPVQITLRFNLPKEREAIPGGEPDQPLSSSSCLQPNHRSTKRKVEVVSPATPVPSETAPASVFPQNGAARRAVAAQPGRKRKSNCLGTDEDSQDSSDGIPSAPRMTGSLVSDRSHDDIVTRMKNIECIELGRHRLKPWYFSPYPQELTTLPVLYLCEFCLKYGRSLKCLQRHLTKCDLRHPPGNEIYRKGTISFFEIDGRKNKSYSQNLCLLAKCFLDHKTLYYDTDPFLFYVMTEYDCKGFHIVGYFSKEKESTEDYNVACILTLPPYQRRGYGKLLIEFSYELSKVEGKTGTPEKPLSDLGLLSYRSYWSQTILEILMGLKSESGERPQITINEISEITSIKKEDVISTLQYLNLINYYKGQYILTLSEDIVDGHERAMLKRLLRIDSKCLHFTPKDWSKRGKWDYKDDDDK
Chain of KAT-7 (O95251 other isoform, or with tags, fused parts or gaps): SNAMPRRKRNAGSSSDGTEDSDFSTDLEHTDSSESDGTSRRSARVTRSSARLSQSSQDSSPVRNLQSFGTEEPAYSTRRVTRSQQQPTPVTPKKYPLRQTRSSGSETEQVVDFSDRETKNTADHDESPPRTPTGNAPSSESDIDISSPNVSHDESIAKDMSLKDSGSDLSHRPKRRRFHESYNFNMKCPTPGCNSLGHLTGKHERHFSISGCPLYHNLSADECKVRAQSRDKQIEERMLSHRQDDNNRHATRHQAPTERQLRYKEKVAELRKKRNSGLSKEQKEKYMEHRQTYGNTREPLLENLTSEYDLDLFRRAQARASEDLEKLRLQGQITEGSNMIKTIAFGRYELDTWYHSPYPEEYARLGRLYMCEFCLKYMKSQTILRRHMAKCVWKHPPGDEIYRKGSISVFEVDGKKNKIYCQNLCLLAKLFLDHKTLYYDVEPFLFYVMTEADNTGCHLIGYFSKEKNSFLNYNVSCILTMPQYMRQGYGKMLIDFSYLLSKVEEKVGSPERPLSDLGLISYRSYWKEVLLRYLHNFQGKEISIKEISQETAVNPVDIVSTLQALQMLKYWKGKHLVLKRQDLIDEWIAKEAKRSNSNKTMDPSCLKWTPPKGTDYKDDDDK

Row | IC50 (KAT-6A) [µM] | IC50 (KAT-8) [µM] | IC50 (KAT-7) [µM] | IC50 (KAT-5) [µM] | IC50 (KAT-6A; Table 6, comparative compounds) [µM] | IC50 (KAT-8; Table 6, comparative compounds) [µM] | IC50 (KAT-7; Table 6, comparative compounds) [µM] | IC50 (KAT-5; Table 6, comparative compounds) [µM] | Structure (SMILES)
1 | < 10 | 10 to 50 | < 10 | < 10 | – | – | – | – | Cn1cnc(-c2cc(Cl)c(F)c(C(=O)NNS(=O)(=O)CC3CCN(S(=O)(=O)C4CC4)C3)c2)c1 (stereo not drawn) [Compound I-84]
2 | < 10 | 10 to 50 | < 10 | < 10 | – | – | – | – | CCC(=O)N(C)C1CCCC(CS(=O)(=O)NNC(=O)c2cc(-c3cn(C)cn3)cc(Cl)c2F)C1 (stereo not drawn) [Compound I-294]
3 | < 10 | 10 to 50 | < 10 | < 10 | – | – | – | – | CN(C(=O)OC(C)(C)C)C1CCC(CS(=O)(=O)NNC(=O)c2cc(-c3cn(C)cn3)cc(Cl)c2F)CC1 (stereo not drawn) [Compound I-296]
4 | 10 to 50 | 10 to 50 | < 10 | 10 to 50 | – | – | – | – | CN(C)C(=O)CS(=O)(=O)NNC(=O)c1cc(-c2cn(C)cn2)cc(Cl)c1F [Compound I-314]
5 | < 10 | 10 to 50 | < 10 | < 10 | – | – | – | – | Cn1cnc(-c2cc(Cl)c(F)c(C(=O)NNS(=O)(=O)C[C@H]3CC[C@@H](NC(=O)C4CCC4)CC3)c2)c1 [Compound I-246]
6 | < 10 | 10 to 50 | < 10 | < 10 | – | – | – | – | Cn1cnc(-c2cc(Cl)c(F)c(C(=O)NNS(=O)(=O)CC3CCC(NC(=O)N4CCCCC4)C3)c2)c1 (stereo not drawn) [Compound I-345]
7 | < 10 | 10 to 50 | < 10 | < 10 | – | – | – | – | Cn1cnc(-c2cc(Cl)c(F)c(C(=O)NNS(=O)(=O)CC3CCN(S(=O)(=O)C4CCC4)C3)c2)c1 (stereo not drawn) [Compound I-106]
8 | 10 to 50 | 10 to 50 | < 10 | 10 to 50 | – | – | – | – | Cn1cnc(-c2cc(Cl)c(F)c(C(=O)NNS(=O)(=O)C[C@H]3CC[C@H](N)CC3)c2)c1 [Compound I-93]
9 | 10 to 50 | 10 to 50 | < 10 | 10 to 50 | – | – | – | – | Cn1cnc(-c2cc(Cl)c(F)c(C(=O)NNS(=O)(=O)CC(=O)N3CCCC3)c2)c1 [Compound I-328]
10 | – | – | – | – | ≤ 10 | > 100 | 10 to 50 | ≤ 10 | Cc1cc(-c2ccccc2)cc(C(=O)NNS(=O)(=O)CC2CCCN(C(=O)OC(C)(C)C)C2)c1F (single isomer, unassigned) [C, reference compound]
11 | < 10 | 10 to 50 | – | < 10 | – | – | – | – | Cn1cnc(-c2cc(Cl)c(F)c(C(=O)NNS(=O)(=O)CC3CCCOC3)c2)c1 (stereo not drawn) [Compound I-273]
12 | < 10 | 10 to 50 | – | < 10 | – | – | – | – | Cn1cnc(-c2cc(Cl)c(F)c(C(=O)NNS(=O)(=O)CC3CCCO3)c2)c1 (stereo not drawn) [Compound I-276]
13 | < 10 | 10 to 50 | – | < 10 | – | – | – | – | COC1CCCC(CS(=O)(=O)NNC(=O)c2cc(-c3cn(C)cn3)cc(Cl)c2F)C1 (stereo not drawn) [Compound I-270]
14 | 10 to 50 | 10 to 50 | – | 10 to 50 | – | – | – | – | C[C@@H]1CNC[C@H]1CS(=O)(=O)NNC(=O)c1cc(-c2cn(C)cn2)cc(Cl)c1F [Compound I-263]
15 | 10 to 50 | 10 to 50 | – | 10 to 50 | – | – | – | – | CCNC(=O)N1C[C@H](CS(=O)(=O)NNC(=O)c2cc(-c3cn(C)cn3)cc(Cl)c2F)[C@@H](C)C1 [Compound I-271]
16 | < 10 | 10 to 50 | – | < 10 | – | – | – | – | COC1CCC(CS(=O)(=O)NNC(=O)c2cc(-c3cn(C)cn3)cc(Cl)c2F)CC1 (stereo not drawn) [Compound I-278]
17 | < 10 | 10 to 50 | – | < 10 | – | – | – | – | CN(C(=O)OC(C)(C)C)C1CCCC(CS(=O)(=O)NNC(=O)c2cc(-c3cn(C)cn3)cc(Cl)c2F)C1 (stereo not drawn) [Compound I-274]

Row | IC50 (KAT-6A) [µM] | IC50 (KAT-8) [µM] | IC50 (KAT-7) [µM] | IC50 (KAT-5) [µM] | IC50 (KAT-6A; Table 6, comparative compounds) [µM] | IC50 (KAT-8; Table 6, comparative compounds) [µM] | IC50 (KAT-7; Table 6, comparative compounds) [µM] | IC50 (KAT-5; Table 6, comparative compounds) [µM] | Structure (SMILES)
18 | 10 to 50 | > 100 | – | < 10 | – | – | – | – | CN(C(=O)OC(C)(C)C)C1CC(CS(=O)(=O)NNC(=O)c2cc(-c3cn(C)cn3)cc(Cl)c2F)C1 (stereo not drawn) [Compound I-390]
19 | < 10 | > 100 | – | < 10 | – | – | – | – | Cn1cnc(-c2cc(Cl)c(F)c(C(=O)NNS(=O)(=O)c3cccc(N)n3)c2)c1 [Compound I-392]
20 | 10 to 50 | > 100 | – | 10 to 50 | – | – | – | – | CNC1CC(CS(=O)(=O)NNC(=O)c2cc(-c3cn(C)cn3)cc(Cl)c2F)C1 (stereo not drawn) [Compound I-395]
21 | – | 10 to 50 | < 10 | < 10 | – | – | – | – | CC(C)S(=O)(=O)N1CCCC(CS(=O)(=O)NNC(=O)c2cc(-c3cn(C)cn3)cc(Cl)c2F)C1 (stereo not drawn) [Compound I-98]
22 | < 10 | 10 to 50 | – | < 10 | – | – | – | – | Cn1cnc(-c2cc(Cl)c(F)c(C(=O)NNS(=O)(=O)CC3CCCCO3)c2)c1 (stereo not drawn) [Compound I-279]
23 | – | > 100 | – | – | – | – | – | – | COc1ccc(COc2cccc(S(=O)(=O)NNC(=O)c3cc(-c4cn(C)cn4)cc(Cl)c3F)c2)cc1 [Compound I-397]
24 | < 10 | 10 to 50 | – | < 10 | – | – | – | – | Cn1cnc(-c2cc(Cl)c(F)c(C(=O)NNS(=O)(=O)CC3CCOC3)c2)c1 (stereo not drawn) [Compound I-272]
25 | < 10 | 10 to 50 | – | < 10 | – | – | – | – | Cn1cnc(-c2cc(Cl)c(F)c(C(=O)NNS(=O)(=O)CC34CC5CC(CC(C5)C3)C4)c2)c1 [Compound I-275]
26 | < 10 | 50 to 100 | – | < 10 | – | – | – | – | Cn1cnc(-c2cc(Cl)c(F)c(C(=O)NNS(=O)(=O)c3cccc(O)n3)c2)c1 [Compound I-391]
27 | – | 10 to 50 | < 10 | < 10 | – | – | – | – | CC(=O)NC1CCCC(CS(=O)(=O)NNC(=O)c2cc(-c3cn(C)cn3)cc(Cl)c2F)C1 (stereo not drawn) [Compound I-99]
28 | < 10 | > 100 | – | < 10 | – | – | – | – | Cn1cnc(-c2cc(Cl)c(F)c(C(=O)NNS(=O)(=O)c3cccc(NCc4ccccc4)n3)c2)c1 [Compound I-393]
29 | < 10 | 10 to 50 | – | < 10 | – | – | – | – | Cn1cnc(-c2cc(Cl)c(F)c(C(=O)NNS(=O)(=O)C[C@H]3CC[C@H](NC(=O)c4ccncc4)CC3)c2)c1 [Compound I-269]
30 | < 10 | 10 to 50 | – | < 10 | – | – | – | – | Cn1cnc(-c2cc(Cl)c(F)c(C(=O)NNS(=O)(=O)CC3CCC(C)(C)CC3)c2)c1 [Compound I-396]
31 | – | > 100 | < 10 | < 10 | – | – | – | – | Cc1c(-c2cc(Cl)c(F)c(C(=O)NNS(=O)(=O)CC3CCCCC3)c2)ncn1C [Compound I-38]
32 | – | 10 to 50 | – | – | – | – | – | – | CNC(=O)N[C@H]1C[C@@H](CS(=O)(=O)NNC(=O)c2cc(-c3cn(C)cn3)cc(Cl)c2F)C1 [Compound I-197]
33 | 10 to 50 | > 100 | – | 10 to 50 | – | – | – | – | CN(CCOc1ccc(S(=O)(=O)NNC(=O)c2cc(-c3cn(C)cn3)cc(Cl)c2F)cc1)C(=O)OC(C)(C)C [Compound I-394]
34 | < 10 | 10 to 50 | – | < 10 | – | – | – | – | Cn1cnc(-c2cc(Cl)c(F)c(C(=O)NNS(=O)(=O)CC3CCCC(NC(=O)Cc4ccccn4)C3)c2)c1 (stereo not drawn) [Compound I-268]

Row | Structure (SMILES) | IC50 (KAT-6A) [µM] | IC50 (KAT-8) [µM] | IC50 (KAT-7) [µM] | IC50 (KAT-5) [µM] | IC50 (KAT-6A; Table 6, comparative compounds) [µM] | IC50 (KAT-8; Table 6, comparative compounds) [µM] | IC50 (KAT-7; Table 6, comparative compounds) [µM] | IC50 (KAT-5; Table 6, comparative compounds) [µM]
35 | CC(=O)N1[C@H]2CC[C@@H](CS(=O)(=O)NNC(=O)c3cc(-c4cn(C)cn4)cc(Cl)c3F)[C@@H]1CC2 [Compound I-277] | < 10 | 10 to 50 | – | < 10 | – | – | – | –
36 | Cn1cnc(-c2cc(Cl)c(F)c(C(=O)NNS(=O)(=O)C[C@H]3CC[C@H]4CC[C@@H]3N4C(=O)OC(C)(C)C)c2)c1 [Compound I-259] | 10 to 50 | 10 to 50 | – | < 10 | – | – | – | –
